One assay has as its system FTH1. Kind of assay: FTH1 gene expression in human skeletal muscle cells (HSkMC) by qRT-PCR. The format is cell-based. The following applies: for FTH1 Fold Change, Average / FTH1 Fold Change (individual runs): SPH 100 μM or synthetic oligopeptide 10 μM, about 12 hours; for FTH1 Fold Change (individual runs): triplicate runs; for FTH1 Fold Change at 0.625 μM / FTH1 Fold Change at 1.25 μM / FTH1 Fold Change at 2.5 μM / FTH1 Fold Change at 5 μM / FTH1 Fold Change at 10 μM: average of triplicate (SD ≤ 0.3). As for the experimental part:
A cell line derived from human skeletal muscle was selected to assess the effect of SPH and oligopeptides on gene expression. HSkMC (PCS-950-010) obtained from ATCC (Manassas, VA) were propagated in Mesenchymal Stem Cell Basal Medium (ATCC) reduced serum medium supplemented with Primary Skeletal Cell Muscle Growth Kit (ATCC) that contains L-Glutamine (10 mM), Dexamethasone ([…]), rh epidermal growth factor (5 ng/ml), rh FGF-b (5 ng/ml), rh Insulin (25 μg/mL), and fetal bovine serum (4%), on 100 mm cell culture dishes. For this assay, the HSkMC cells were seeded in 24 well plates at a cell density of 1×10^4 cells/cm^2 and maintained at 37° C. in a humidified 5% CO2 atmosphere. […]
Total RNA was extracted using the UPzol reagent for the cell pellets, followed by a DNAse treatment (DNAse TURBO), using the manufacturer's protocols. Complementary DNA (cDNA) was synthesized with the High Capacity cDNA Reverse Transcription Kit (Applied Biosystems) using random hexamers. Gene expression levels were measured by qRT-PCR.
1 μl of cDNA corresponding to 50 ng of reverse transcribed RNA was amplified by Qpcr (QuantStudio™ 6 Flex Real-Time PCR System), using the TaqMan™ Universal PCR Master Mix (Catalog No. 4304437) and a TaqMan™ assay (Roche Molecular Systems, Inc., Pleasanton, CA).
FTH1 gene expression was estimated relative to expression of the housekeeping gene, beta-actin (ACTB), following the standard formula: […]
2-ΔCt. TaqMan™ probe IDs used were: (i) FTH1, Hs01694011_s1; and (ii) ACTB, Hs01060665_g1. All experiments were run in triplicate.
On the technique in general: Quantitative PCR measures a nucleic acid by following its amplification.

The test system of assay [1] is Immortalized human astrocytes (P10251-IM). Kind of assay: Protection of human astrocytes from hemin-induced injury (LDH release assay). The conditions noted are these: 24 hr pre-treatment: SPH 160 μM, oligopeptide 10 μM, collagen control 160 μM; then 30 μM hemin 6 hrs; scaled to 0.1% Triton X-100 lysis. The format is cell-based. As for the experimental part: Immortalized human astrocytes (P10251-IM) were obtained from Innoprot, Spain and prepared under conditions recommended by the supplier. At 90% confluency, the P10251-IM cells were rinsed with 8 ml of DPBS and 2 ml of the T/E Solution (prepared as per Innoprot procedure), then added into an […] and gently rocked so that the P10251-IM cells would be completely covered. The flask was subsequently incubated at 37° C. for 2 minutes. Then 5 ml of fetal bovine serum (FBS) and the T/E solution from the flask were added into a 50 ml conical centrifuge tube. The flask was incubated for an additional 2 minutes, and the P10251-IM cells dislodged from the surface by gentle tapping. The P10251-IM cells were then transferred to the 50 ml conical centrifuge tube with 5 ml of TNS solution. The tube was centrifuged at 1000 rpm for 5 minutes. Then the P10251-IM cells were resuspended in the culture medium, counted, and plated in a poly-L-lysine-coated culture plate at 1×10^4 cell density. Cells were tested after they were incubated for 21 days in vitro.
Confluent P10251-IM cell cultures were washed and then pre-treated with medium alone, or medium supplemented with SPH (160 μM) or an oligopeptide (10 μM) for 24 hr at 37° C. Commercial collagen peptide (Vital Protein) at 160 μM concentration and sterile water were used as negative controls. The P10251-IM cells were subsequently treated with 30 μM hemin in serum-free medium consisting of MEM with 10 mM glucose (MEM10) for 6 hrs.
P10251-IM astrocyte cultures that were […] with 30 μM hemin sustained widespread cell injury. Cell viability was quantified using the lactate dehydrogenase (LDH) release assay as previously described (Chen and Regan, Curr Neurovasc Res, 2:189-196, 2005). Briefly, quantification of the protective effects of SPH and oligopeptides were assessed by determining the mean percentage LDH released, scaled to the complete lysis control culture which was treated with 0.1% Triton X-100 (considered to release 100% of culture LDH).
(LDH leaks from cells whose membrane has failed.)

Several values for one entry are separate records, joined by “and”; a condition that tells them apart may be missing. Equal values may be shown once.

On to REESGE [FT-001], for which, in the assay on FTH1, the “FTH1 Fold Change, Average” value came out at 1.7 fold; the “FTH1 Fold Change (individual runs)” value was 1.6 fold and 1.8 fold (2×).
Take “Triton X-100 [0.1% Triton X-100, reference compound]”: in assay [1], the “% LDH Release (individual runs)” value was 100% (2×) and 99%; the “% LDH Release, Average” value was 100%.
As for KEEDEESGE [FT-003], in the assay on FTH1, the “FTH1 Fold Change, Average” value is 1.1 fold; the “FTH1 Fold Change (individual runs)” value was 1.1 fold and 1.0 fold and 1.3 fold.
Regarding LDEESGEP [FT-005], in the assay with FTH1, the “FTH1 Fold Change, Average” value is given as 1.8 fold; the “FTH1 Fold Change (individual runs)” value is 1.7 fold and 1.8 fold (2×).
Take REESGEP [FT-002]: in the assay on FTH1, the “FTH1 Fold Change at 0.625 μM” value was 1.0 fold, the “FTH1 Fold Change at 1.25 μM” value came to 1.0 fold, the “FTH1 Fold Change at 2.5 μM” value was 1.1 fold and the “FTH1 Fold Change at 5 μM” value was 1.4 fold. Moreover, in the assay with FTH1, the “FTH1 Fold Change at 10 μM” value was 2.2 fold; the “FTH1 Fold Change, Average” value was 2.2 fold; the “FTH1 Fold Change (individual runs)” value was 2.1 fold and 2.0 fold and 2.5 fold.
As to KPREESGE [FT-004], in the assay with FTH1, the “FTH1 Fold Change at 0.625 μM” value worked out at 1.1 fold, the “FTH1 Fold Change at 1.25 μM” value is listed as 1.1 fold, the “FTH1 Fold Change at 2.5 μM” value is reported as 1.1 fold and the “FTH1 Fold Change at 5 μM” value is 1.3 fold. Further, in the assay on FTH1, the “FTH1 Fold Change at 10 μM” value is 2.1 fold; the “FTH1 Fold Change, Average” value came to 2.1 fold; the “FTH1 Fold Change (individual runs)” value was 2.1 fold and 2.2 fold and 1.9 fold.

These data come from patent US20250101061A1, “UPREGULATION OF FERRITIN HEAVY CHAIN 1 EXPRESSION” (HBC Immunology Inc., priority 2022, published 2025).
